Like-named read-outs stand apart in the source and are kept apart here. Bounds are passed on as bounds.

As a reminder, the inhibition is the relative decrease from the control value, in per cent.

The test system of assay [1] is HepG2-A16-CD81EGFP cells. Put plainly: cells. The following applies: Homo sapiens; for IC50: HepG2, read-out: Tox IC50; for inhibition at 50 µM: HepG2, read-out: Tox max inhibition (%) @ 50 uM; for inhibition at 10 µM: HepG2, read-out: Tox max inhibition (%) @ 10 uM.
The subject of assay [2] is Plasmodium berghei (Pb-Luc) exoerythrocytic-stage parasites. Put plainly: microbe, parasite or virus in culture. The following applies: for inhibition at 10 µM: read-out: PbLuc max inhibition (%) @ 10 uM.
The target of assay [3] is QuantiLum Recombinant Luciferase (Photinus pyralis, UniProt P08659). Put plainly: Bioluminescence quantification of compound luciferase inhibition. The following applies: for Emax: read-out: LucInhib max inhibition.
Setting [4] is: HepG2, read-out: HepG2 Tox% @ 50 uM rep1.
Setting [5] is: HepG2, read-out: HepG2 Tox% @ 50 uM rep2.
Where [6] appears, read: read-out: Inhibition% @ 50 uM rep1.
Setting [7] is: read-out: Inhibition% @ 50 uM rep2.
[8] abbreviates: read-out: PbLuc IC50, dose response, 1/3 dilutions, max conc. 10 or 50 uM, unit inferred.
The mark [9] stands for this setting: read-out: PbLuc max inhibition (%) @ 50 uM.
[10] abbreviates: read-out: PbLuc IC50, dose response, unit inferred.

Chain of QuantiLum Recombinant Luciferase (P08659 whole entry): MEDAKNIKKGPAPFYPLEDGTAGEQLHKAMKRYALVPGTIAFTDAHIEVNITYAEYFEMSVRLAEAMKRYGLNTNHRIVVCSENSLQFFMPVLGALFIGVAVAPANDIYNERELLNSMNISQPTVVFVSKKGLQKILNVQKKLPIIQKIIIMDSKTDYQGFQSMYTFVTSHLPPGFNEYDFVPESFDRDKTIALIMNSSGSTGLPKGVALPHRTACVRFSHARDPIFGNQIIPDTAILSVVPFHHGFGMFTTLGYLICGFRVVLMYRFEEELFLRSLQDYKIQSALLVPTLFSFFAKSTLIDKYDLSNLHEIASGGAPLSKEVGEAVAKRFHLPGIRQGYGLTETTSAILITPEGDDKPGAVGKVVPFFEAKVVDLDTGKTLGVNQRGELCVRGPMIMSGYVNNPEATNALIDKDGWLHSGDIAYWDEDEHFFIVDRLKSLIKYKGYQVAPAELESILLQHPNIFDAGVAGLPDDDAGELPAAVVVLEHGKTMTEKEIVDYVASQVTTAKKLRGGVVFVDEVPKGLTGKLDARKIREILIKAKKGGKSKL

`Cc1c(C)n(Cc2ccc(F)cc2)c2ccc(C(=O)NCc3ccco3)cc12` [MMV008149]: the results for the cytotoxicity at 50 µM in assay [1] (setting [4]) and in assay [1] (setting [5]) were 9% and 19%, respectively. Also, the IC50 is greater than 50 µM in assay [1], 0.765 µM in assay [2] (setting [8]) and greater than 50 µM in assay [3]. Also, the inhibition at 50 µM in assay [1] stood at 32%; in assay [2] (setting [6]), 102%; in assay [2] (setting [7]), 102%; in assay [2] (setting [9]) it was 107%. Moreover, in assay [3], the Emax was 10%.

With `Oc1c2c(nc3cc(-c4ccccc4)nn13)CCCC2` [MMV008270], the cytotoxicity at 50 µM in assay [1] (setting [4]) is -14%; in assay [1] (setting [5]), -22%. Besides, the IC50 is greater than 10 µM in assay [1], 0.147 µM in assay [2] (setting [8]) and 0.577 µM in assay [3]. Moreover, the inhibition at 10 µM is 8% in assay [1] and 106% in assay [2]. The inhibition at 50 µM in assay [2] (setting [6]) is 103%; in assay [2] (setting [7]), 104%. The Emax in assay [3] is 92%.

On to `CCN1CCN(c2c(C(=O)c3ccccc3)cnc3cc(OC)c(OC)cc23)CC1` [MMV008474], for which the cytotoxicity at 50 µM in assay [1] (setting [4]) was 7%. Moreover, the IC50 was greater than 50 µM in assay [1], 1.01 µM in assay [2] (setting [8]) and greater than 50 µM in assay [3]. Moreover, the inhibition at 50 µM in assay [1] worked out at 7%; in assay [2] (setting [6]) it was 102%; in assay [2] (setting [7]) it was 103%; in assay [2] (setting [9]), 106%. Moreover, the Emax in assay [3] worked out at 22%.

In the case of `CCOc1cc2c(cc1OCC)C(c1cc(OC)c(O)cc1Cl)NCC2` (stereo not shown) [MMV008956], the cytotoxicity at 50 µM is -6.54% in assay [1] (setting [4]) and -15% in assay [1] (setting [5]). For the same compound, the IC50 in assay [1] was greater than 10 µM; in assay [2] (setting [10]), greater than 10 µM; in assay [3] it was greater than 20 µM. The inhibition at 10 µM in assay [1] was found to be 9%; in assay [2], 22%. In addition, the inhibition at 50 µM in assay [2] (setting [6]) came out at 101%; in assay [2] (setting [7]), 100%. The Emax in assay [3] was found to be 24%.

As for `CCN(CC)c1ccc(NC(=O)c2cccs2)cc1` [MMV009060], the cytotoxicity at 50 µM worked out at 7% in assay [1] (setting [4]) and 16% in assay [1] (setting [5]). Further, the IC50 in assay [1] is greater than 50 µM; in assay [2] (setting [8]) it was 1.76 µM; in assay [3] it was 33.1 µM. In addition, the inhibition at 50 µM is 6% in assay [1], 101% in assay [2] (setting [6]), 102% in assay [2] (setting [7]) and 104% in assay [2] (setting [9]). For the same compound, the Emax in assay [3] worked out at 80%.

As to `CC(C)(C)c1ccc(C2CC3=Nc4ccccc4N(C(=O)c4ccccc4Cl)C(c4ccc(F)cc4)C3=C(O)C2)cc1` (stereo not shown) [MMV011436], in assay [1] (setting [4]), the cytotoxicity at 50 µM was 1.44%. In addition, the IC50 in assay [1] was greater than 50 µM; in assay [2] (setting [8]) it was 2.39 µM; in assay [3], greater than 50 µM. For the same compound, the inhibition at 50 µM was determined as 19% in assay [1], 93% in assay [2] (setting [6]), 94% in assay [2] (setting [7]) and 99% in assay [2] (setting [9]). In addition, the Emax in assay [3] worked out at 20%.

Turning to `Cc1cc(NC(=O)c2ccc(-c3ccccc3)cc2)no1` [MMV018984], the cytotoxicity at 50 µM in assay [1] (setting [4]) was -22%; in assay [1] (setting [5]), -20%. The results for the IC50 in assay [1], in assay [2] (setting [8]) and in assay [3] were greater than 10 µM, 0.79 µM and greater than 20 µM, respectively. Further, the inhibition at 10 µM amounted to 19% in assay [1] and 101% in assay [2]. The inhibition at 50 µM in assay [2] (setting [6]) turned out to be 101%; in assay [2] (setting [7]), 100%. In assay [3], the Emax is 58%.

For the compound `COc1ccc(N2CCN(C(CNC(=O)C3CCCCC3)c3ccc4c(c3)OCO4)CC2)cc1` (stereo not shown) [MMV019662], the cytotoxicity at 50 µM in assay [1] (setting [4]) worked out at 18%; in assay [1] (setting [5]) it was 28%. Besides, the IC50 in assay [1], in assay [2] (setting [10]) and in assay [3] was greater than 50 µM throughout. For the same compound, the inhibition at 50 µM in assay [1] stood at 19%; in assay [2] (setting [6]), 89%; in assay [2] (setting [7]), 94%; in assay [2] (setting [9]), 49%. The Emax in assay [3] turned out to be 38%.

In the case of `O=C(Nc1ccc(N2CCN(Cc3ccccc3)CC2)cc1)c1cccs1` [MMV019670], the cytotoxicity at 50 µM was -7.52% in assay [1] (setting [4]) and -9% in assay [1] (setting [5]). Further, the IC50 in assay [1] is greater than 10 µM; in assay [2] (setting [8]), 0.0944 µM; in assay [3], greater than 20 µM. For the same compound, the inhibition at 10 µM was found to be 32% in assay [1] and 110% in assay [2]. Besides, the inhibition at 50 µM in assay [2] (setting [6]) and in assay [2] (setting [7]) was 102% in each case. Besides, in assay [3], the Emax amounted to 14%.

Turning to `COc1cccc(C(=O)Nc2ccc(-c3nc4ccccc4[nH]3)cc2)c1` [MMV019762], the cytotoxicity at 50 µM in assay [1] (setting [4]) was -16%. Further, the figures for the IC50 in assay [1], in assay [2] (setting [10]) and in assay [3] were greater than 10 µM, greater than 10 µM and greater than 20 µM, respectively. Also, the inhibition at 10 µM stood at 9% in assay [1] and 31% in assay [2]. For the same compound, the inhibition at 50 µM in assay [2] (setting [6]) is -94%; in assay [2] (setting [7]), -91%. Also, the Emax in assay [3] was -3%.

Regarding `O=C(NC1CCN(Cc2ccccc2)CC1)c1cc(-c2cccnc2)nc2ccc(Cl)cc12` [MMV020490], the cytotoxicity at 50 µM is 0.383% in assay [1] (setting [4]) and -0.245% in assay [1] (setting [5]). The IC50 in assay [1], in assay [2] (setting [10]) and in assay [3] was greater than 50 µM each time. For the same compound, the inhibition at 50 µM in assay [1] amounted to 12%; in assay [2] (setting [6]), 95%; in assay [2] (setting [7]), 91%; in assay [2] (setting [9]) it was 71%. Moreover, the Emax in assay [3] worked out at 23%.

On to `CC(=O)Nc1nnc(SCc2c(C)cc(C(C)(C)C)cc2C)s1` [MMV020700], for which the cytotoxicity at 50 µM in assay [1] (setting [4]) turned out to be 0.191%; in assay [1] (setting [5]), 8%. The values for the IC50 in assay [1], in assay [2] (setting [8]) and in assay [3] were greater than 50 µM, 2.29 µM and greater than 50 µM, respectively. Besides, the inhibition at 50 µM was 10% in assay [1], 103% in assay [2] (setting [6]), 105% in assay [2] (setting [7]) and 103% in assay [2] (setting [9]). In addition, the Emax in assay [3] came to 34%.

`CCCCCC(=O)N1c2ccccc2N=C2CC(c3ccc(OC)c(OC)c3)CC(O)=C2C1c1ccc(C(F)(F)F)cc1` (stereo not shown) [MMV085583]: the cytotoxicity at 50 µM was 14% in assay [1] (setting [4]) and 28% in assay [1] (setting [5]). For the same compound, the IC50 in assay [1] is greater than 50 µM; in assay [2] (setting [8]), 7.1 µM; in assay [3], greater than 50 µM. Further, the inhibition at 50 µM was 4.23% in assay [1], 97% in assay [2] (setting [6]), 90% in assay [2] (setting [7]) and 89% in assay [2] (setting [9]). Besides, the Emax in assay [3] was 34%.

Turning to `COc1cc(CNCCc2ccc(Cl)cc2)cc(OC)c1O` [MMV128432], the cytotoxicity at 50 µM in assay [1] (setting [4]) was -13%. In addition, the IC50 in assay [1], in assay [2] (setting [10]) and in assay [3] was greater than 50 µM in each case. Besides, the inhibition at 50 µM in assay [1] was found to be 33%; in assay [2] (setting [6]), 90%; in assay [2] (setting [7]), 93%; in assay [2] (setting [9]), 73%. In assay [3], the Emax was 39%.

Consider `COc1ccc(-c2nc(N3CCN(C(=O)C4CCCCC4)CC3)c3c4c(sc3n2)CCCC4)cc1` [MMV396594], for which the cytotoxicity at 50 µM in assay [1] (setting [4]) was 2.59%. For the same compound, the figures for the IC50 in assay [1], in assay [2] (setting [10]) and in assay [3] were greater than 50 µM, 39.9 µM and greater than 50 µM, respectively. Moreover, the inhibition at 50 µM in assay [1] was 37%; in assay [2] (setting [6]), 98%; in assay [2] (setting [7]), 98%; in assay [2] (setting [9]) it was 69%. For the same compound, the Emax in assay [3] came out at 44%.

Values taken from paper PMC4890880 (ACS infectious diseases, 2016).
